Assay results as given in ChEMBL document CHEMBL2413023, “Antiparasitic hybrids of Cinchona alkaloids and bile acids” (Eur J Med Chem, 2013).
In brackets after ≈: the same amount, converted by molar mass.

Key:
[1] = Selectivity index, ratio of IC50 for human WI38 cells to IC50 for erythrocytic stage of chloroquine-sensitive Plasmodium falciparum 3D7; assay type: toxicity, cell-based, WI-38; conditions: read-out: Ratio IC50
[2] = Selectivity index, ratio of IC50 for human WI38 cells to IC50 for Leishmania mexicana mexicana MHOM/BZ/84/BEL46 promastigotes; assay type: toxicity, cell-based, WI-38; conditions: read-out: Ratio IC50
Plasmodium falciparum = experiment: Antiplasmodial activity against erythrocytic stage of chloroquine-sensitive Plasmodium falciparum 3D7 assessed as parasite LDH activity by three-fold serial dilution method; assay type: functional, organism-based
[3] = system: Leishmania mexicana mexicana; experiment: Antileishmanial activity against Leishmania mexicana mexicana MHOM/BZ/84/BEL46 promastigotes assessed as parasite LDH activity by three-fold serial dilution method; assay type: functional, organism-based
[4] = system: Trypanosoma brucei brucei; experiment: Antitrypanosomal activity against Trypanosoma brucei brucei Lister 427 bloodstream form assessed as parasite LDH activity by three-fold serial dilution method; assay type: functional, organism-based
WI-38 = experiment: Cytotoxicity against human WI38 cells by MTT assay; assay type: cell-based
in vitro = conditions: human, WI38 cells
Description: Selectivity index, ratio of IC50 for human WI38 cells to IC50 for Trypanosoma brucei brucei Lister 427 bloodstream form

Compound	selectivity ratio [1]	selectivity ratio [2]	IC50 (Plasmodium falciparum)	IC50 [3]	IC50 [4]	IC50 (WI-38)	selectivity ratio (in vitro)
C=C[C@H]1CN2CC[C@H]1C[C@H]2[C@H](O)c1cc(CC[C@@H](C)[C@H]2CC[C@H]3[C@@H]4CC[C@@H]5C[C@H](OC(C)=O)CC[C@]5(C)[C@H]4CC[C@]23C)nc2ccccc12	4.6	0.46	1.21 µg/mL (≈ 1.81 µM)	12.2 µg/mL (≈ 18.3 µM)	1.27 µg/mL (≈ 1.9 µM)	5.58 µg/mL (≈ 8.37 µM)	4.4
C=C[C@H]1CN2CC[C@H]1C[C@H]2[C@@H](O)c1cc(CC[C@@H](C)[C@H]2CC[C@H]3[C@@H]4CC[C@@H]5C[C@H](O)CC[C@]5(C)[C@H]4CC[C@]23C)nc2ccccc12	4.6	0.97	0.86 µg/mL (≈ 1.38 µM)	4.08 µg/mL (≈ 6.53 µM)	3.01 µg/mL (≈ 4.82 µM)	3.97 µg/mL (≈ 6.35 µM)	1.3
C=C[C@H]1CN2CC[C@H]1C[C@H]2[C@@H](O)c1cc(CC[C@@H](C)[C@H]2CC[C@H]3[C@@H]4[C@H](O)C[C@@H]5C[C@H](O)CC[C@]5(C)[C@H]4CC[C@]23C)nc2ccccc12	15.7	0.42	0.09 µg/mL (≈ 0.14 µM)	3.39 µg/mL (≈ 5.29 µM)	0.39 µg/mL (≈ 0.608 µM)	1.42 µg/mL (≈ 2.22 µM)	3.6
C=C[C@H]1CN2CC[C@H]1C[C@H]2[C@H](O)c1cc(CC[C@@H](C)[C@H]2CC[C@H]3[C@@H]4CC[C@@H]5C[C@H](O)CC[C@]5(C)[C@H]4CC[C@]23C)nc2ccccc12	8.7	0.72	1.07 µg/mL (≈ 1.71 µM)	12.8 µg/mL (≈ 20.5 µM)	2.16 µg/mL (≈ 3.46 µM)	9.28 µg/mL (≈ 14.8 µM)	4.3
C=C[C@H]1CN2CC[C@H]1C[C@H]2[C@H](O)c1cc(CC[C@@H](C)[C@H]2CC[C@H]3[C@@H]4[C@H](O)C[C@@H]5C[C@H](O)CC[C@]5(C)[C@H]4CC[C@]23C)nc2ccccc12	7.5	0.5	0.23 µg/mL (≈ 0.359 µM)	3.45 µg/mL (≈ 5.38 µM)	0.4 µg/mL (≈ 0.624 µM)	1.71 µg/mL (≈ 2.67 µM)	4.3
C=C[C@H]1CN2CC[C@H]1C[C@H]2[C@H](O)c1cc(CC[C@@H](C)[C@H]2CC[C@H]3[C@@H]4CC[C@@H]5C[C@H](OC(C)=O)CC[C@]5(C)[C@H]4CC[C@]23C)nc2ccc(OC)cc12	2.7	1.2	6.07 µg/mL (≈ 8.71 µM)	14 µg/mL (≈ 20 µM)	2.03 µg/mL (≈ 2.91 µM)	16.2 µg/mL (≈ 23.2 µM)	8
C=C[C@H]1CN2CC[C@H]1C[C@H]2[C@H](O)c1cc(CC[C@@H](C)[C@H]2CC[C@H]3[C@@H]4[C@H](OC(C)=O)C[C@@H]5C[C@H](OC(C)=O)CC[C@]5(C)[C@H]4CC[C@]23C)nc2ccc(OC)cc12	5.6	1.1	0.69 µg/mL (≈ 0.914 µM)	3.49 µg/mL (≈ 4.62 µM)	1.22 µg/mL (≈ 1.62 µM)	3.92 µg/mL (≈ 5.19 µM)	3.2
C=C[C@H]1CN2CC[C@H]1C[C@H]2[C@@H](O)c1cc(CC[C@@H](C)[C@H]2CC[C@H]3[C@@H]4CC[C@@H]5C[C@H](OC(C)=O)CC[C@]5(C)[C@H]4CC[C@]23C)nc2ccc(OC)cc12	9.7	0.57	0.81 µg/mL (≈ 1.16 µM)	13.7 µg/mL (≈ 19.6 µM)	2.97 µg/mL (≈ 4.26 µM)	7.79 µg/mL (≈ 11.2 µM)	2.6
C=C[C@H]1CN2CC[C@H]1C[C@H]2[C@@H](O)c1cc(CC[C@@H](C)[C@H]2CC[C@H]3[C@@H]4[C@H](OC(C)=O)C[C@@H]5C[C@H](OC(C)=O)CC[C@]5(C)[C@H]4CC[C@]23C)nc2ccc(OC)cc12	8.1	0.75	0.38 µg/mL (≈ 0.503 µM)	4.15 µg/mL (≈ 5.5 µM)	0.44 µg/mL (≈ 0.583 µM)	3.1 µg/mL (≈ 4.11 µM)	7.1
C=C[C@H]1CN2CC[C@H]1C[C@H]2[C@@H](O)c1cc(CC[C@@H](C)[C@H]2CC[C@H]3[C@@H]4CC[C@@H]5C[C@H](OC(C)=O)CC[C@]5(C)[C@H]4CC[C@]23C)nc2ccccc12	3.1	0.58	2.26 µg/mL (≈ 3.39 µM)	12.1 µg/mL (≈ 18.1 µM)	1.26 µg/mL (≈ 1.89 µM)	7.02 µg/mL (≈ 10.5 µM)	5.6
C=C[C@H]1CN2CC[C@H]1C[C@H]2[C@@H](O)c1cc(CC[C@@H](C)[C@H]2CC[C@H]3[C@@H]4[C@H](OC(C)=O)C[C@@H]5C[C@H](OC(C)=O)CC[C@]5(C)[C@H]4CC[C@]23C)nc2ccccc12	10.2	0.47	0.19 µg/mL (≈ 0.262 µM)	4.11 µg/mL (≈ 5.67 µM)	0.43 µg/mL (≈ 0.593 µM)	1.93 µg/mL (≈ 2.66 µM)	4.5
C=C[C@H]1CN2CC[C@H]1C[C@H]2[C@H](O)c1cc(CC[C@@H](C)[C@H]2CC[C@H]3[C@@H]4[C@H](OC(C)=O)C[C@@H]5C[C@H](OC(C)=O)CC[C@]5(C)[C@H]4CC[C@]23C)nc2ccccc12	8.4	0.45	0.21 µg/mL (≈ 0.29 µM)	3.91 µg/mL (≈ 5.39 µM)	0.41 µg/mL (≈ 0.565 µM)	1.77 µg/mL (≈ 2.44 µM)	4.3
C=C[C@H]1CN2CC[C@H]1C[C@H]2[C@H](O)c1cc(CC[C@@H](C)[C@H]2CC[C@H]3[C@@H]4CC[C@@H]5C[C@H](O)CC[C@]5(C)[C@H]4CC[C@]23C)nc2ccc(OC)cc12			4.24 µg/mL (≈ 6.47 µM)	> 20 µg/mL	3.53 µg/mL (≈ 5.39 µM)	> 20 µg/mL	
C=C[C@H]1CN2CC[C@H]1C[C@H]2[C@H](O)c1cc(CC[C@@H](C)[C@H]2CC[C@H]3[C@@H]4[C@H](O)C[C@@H]5C[C@H](O)CC[C@]5(C)[C@H]4CC[C@]23C)nc2ccc(OC)cc12	15.5	0.98	0.3 µg/mL (≈ 0.447 µM)	4.67 µg/mL (≈ 6.96 µM)	0.41 µg/mL (≈ 0.611 µM)	4.57 µg/mL (≈ 6.81 µM)	11.1
C=C[C@H]1CN2CC[C@H]1C[C@H]2[C@@H](O)c1cc(CC[C@@H](C)[C@H]2CC[C@H]3[C@@H]4CC[C@@H]5C[C@H](O)CC[C@]5(C)[C@H]4CC[C@]23C)nc2ccc(OC)cc12	3.8	0.64	0.68 µg/mL (≈ 1.04 µM)	4.05 µg/mL (≈ 6.18 µM)	0.79 µg/mL (≈ 1.21 µM)	2.59 µg/mL (≈ 3.95 µM)	3.3
C=C[C@H]1CN2CC[C@H]1C[C@H]2[C@@H](O)c1cc(CC[C@@H](C)[C@H]2CC[C@H]3[C@@H]4[C@H](O)C[C@@H]5C[C@H](O)CC[C@]5(C)[C@H]4CC[C@]23C)nc2ccc(OC)cc12	14	0.51	0.14 µg/mL (≈ 0.209 µM)	3.86 µg/mL (≈ 5.75 µM)	0.37 µg/mL (≈ 0.551 µM)	1.95 µg/mL (≈ 2.91 µM)	5.3
C[C@@H]1[C@H](O)[C@@H](C)/C=C/C=C/C=C/C=C/C=C/C=C/C=C/[C@H](O[C@@H]2O[C@H](C)[C@@H](O)[C@H](N)[C@@H]2O)C[C@@H]2O[C@](O)(C[C@@H](O)C[C@@H](O)[C@H](O)CC[C@@H](O)C[C@@H](O)CC(=O)O[C@H]1C)C[C@H](O)[C@H]2C(=O)O [AMPHOTERICIN B]				0.1 µg/mL (≈ 0.108 µM)			
CC[C@@]1(O)C(=O)OCc2c1cc1n(c2=O)Cc2cc3ccccc3nc2-1 [CAMPTOTHECIN]						0.4 µg/mL (≈ 1.15 µM)	
C=C[C@H]1CN2CC[C@H]1C[C@H]2[C@H](O)c1ccnc2ccccc12 [CINCHONIDINE]	> 71	0.96	0.28 µg/mL (≈ 0.951 µM)	5.74 µg/mL (≈ 19.5 µM)	18.3 µg/mL (≈ 62.1 µM)	> 20 µg/mL	
C=C[C@H]1CN2CC[C@H]1C[C@@H]2[C@@H](O)c1ccnc2ccccc12 [CINCHONINE]	> 222		0.09 µg/mL (≈ 0.306 µM)	> 20 µg/mL	> 20 µg/mL	> 20 µg/mL	
C=C[C@H]1CN2CC[C@H]1C[C@@H]2[C@@H](O)c1ccnc2ccc(OC)cc12 [QUINIDINE]	179		0.06 µg/mL (≈ 0.185 µM)	> 20 µg/mL	8.42 µg/mL (≈ 26 µM)	11.3 µg/mL (≈ 34.8 µM)	1.3
C=C[C@H]1CN2CC[C@H]1C[C@H]2[C@H](O)c1ccnc2ccc(OC)cc12 [QUININE]	32		0.2 µg/mL (≈ 0.616 µM)	> 20 µg/mL	6.87 µg/mL (≈ 21.2 µM)	6.56 µg/mL (≈ 20.2 µM)	1
Cc1ccc(C(=O)Nc2ccc(S(=O)(=O)O)c3cc(S(=O)(=O)O)cc(S(=O)(=O)O)c23)cc1NC(=O)c1cccc(NC(=O)Nc2cccc(C(=O)Nc3cc(C(=O)Nc4ccc(S(=O)(=O)O)c5cc(S(=O)(=O)O)cc(S(=O)(=O)O)c45)ccc3C)c2)c1 [SURAMIN]					0.11 µg/mL (≈ 0.0848 µM)		
